Results taken from ChEMBL document CHEMBL3286280, “Importance of sphingosine kinase (SphK) as a target in developing cancer therapeutics and recent developments in the synthesis of novel SphK inhibitors” (J Med Chem, 2014).

Key:
[1] = target: T1, Sphingosine kinase 2 (Homo sapiens, UniProt Q9NRA0); assay: Inhibition of SphK2 (unknown origin)
T1 sequence (Q9NRA0 whole entry): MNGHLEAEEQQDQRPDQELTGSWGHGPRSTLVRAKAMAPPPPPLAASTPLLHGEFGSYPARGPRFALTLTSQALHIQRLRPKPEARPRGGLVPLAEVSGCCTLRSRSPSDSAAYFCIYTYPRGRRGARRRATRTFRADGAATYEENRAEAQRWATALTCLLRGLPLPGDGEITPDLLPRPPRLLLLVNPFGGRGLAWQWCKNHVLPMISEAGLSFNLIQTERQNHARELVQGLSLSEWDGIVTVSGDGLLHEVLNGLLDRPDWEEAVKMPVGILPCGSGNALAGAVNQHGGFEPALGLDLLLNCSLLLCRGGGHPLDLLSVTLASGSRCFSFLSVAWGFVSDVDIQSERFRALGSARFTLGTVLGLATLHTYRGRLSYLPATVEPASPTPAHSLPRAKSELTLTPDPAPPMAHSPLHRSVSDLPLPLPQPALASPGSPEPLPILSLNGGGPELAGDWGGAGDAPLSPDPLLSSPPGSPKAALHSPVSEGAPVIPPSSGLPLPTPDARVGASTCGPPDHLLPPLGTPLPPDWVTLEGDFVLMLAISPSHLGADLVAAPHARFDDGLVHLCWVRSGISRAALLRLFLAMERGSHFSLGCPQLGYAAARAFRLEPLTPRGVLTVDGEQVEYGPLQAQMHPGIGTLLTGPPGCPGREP

[2] = target: T1, Sphingosine kinase 2; assay: Competitive inhibition of V5-His-tagged human SphK2 expressed in HEK293 cells assessed as S1P production using sphingosine and [gamma-32P]ATP as substrate by thin layer chromatography; format: cell-based
[3] = species on record: Homo sapiens; assay: Selectivity ratio for SphK1 (unknown origin) over SphK2 (unknown origin)
[4] = target: T1, Sphingosine kinase 2; assay: Inhibition of SphK2 (unknown origin) using sphingosine and [gamma-32P]ATP as substrate

Ki [1] [µM]	SMILES	Selectivity ratio [3]	further results
12	CCCCCCCCCCCCC/C=C/[C@@H](O)[C@H](CO)N(C)C [DIMETHYLSPINGOSINE]		
27	CCCCCCCCc1ccc(CC[C@@](N)(CO)COC)cc1		

Second part, the molecule before the results:

SMILES	Ki [1] [µM]	Selectivity ratio [3]	further results
CCCCCc1ccc(/C=C/[C@H](O)[C@@H](CO)NC)cc1			IC50 [2]: 10 µM
CCCCCCCCc1ccc(CCN2CCCC(O)C2)cc1 (stereo unspecified)		6.1	
CCCCCCCCc1ccc(CCN2CCC(O)CC2)cc1		15	
CCCCOc1ccc(CC/C=C2\SC(=O)N(CCN)C2=O)cc1			Ki [4]: 4.3 µM
